We go through 22 compounds from patent US20150329558A1, “FUSED HETEROCYCLIC COMPOUNDS AS ION CHANNEL MODULATORS” (Gilead Sciences, Inc., priority 2011, published 2015).

SMILES strings stand for the structures.

Data set [1] can be described thus: Microsomal stability assay, rat. Conditions: metabolic stability, rat liver microsomes 0.5 mg/mL, substrate 3 uM. The data set is classed as in vitro ADME. The procedure:
(§1) The micorsomal stability assay is generally performed as follows. Format: 15 compounds (and 1 control verapamil) in 3 different species in duplicate sets Substrate: 3 uM Protein concentration: 0.5 mg/mL (for dog, rat, and human liver microsomes) Cofactor: 1×NADPH-Regenerating system Time-points: 2, 12, 25, 45, and 65 minutes [table] Sample preparation: 25 uL at each timepoint is added to plate with 225 uL quenching solution (50% MeOH, 25% ACN, 25% H2O, and 50 nM […]). After plates are vortexed, centrifuge for 30 minutes. Microsomal solutions: take 400 uL of 20 mg/mL microsomes and add to 13,680 uL 100 mM KPO4 buffer. Using an 8-channel, add 650 uL of this solution to the designated two columns on a short plate. The order should be dog microsomes in columns 1 and 2, rat microsomes in columns 3 and 4, and human microsomes in columns 5 and 6. Keep on ice before use. Place this plate in incubator 1 on the TECAN countertop.

A short description of data set [2]: Microsomal stability assay, human. Conditions: metabolic stability, human liver microsomes 0.5 mg/mL, substrate 3 uM. Format: in vitro ADME. The procedure: as §1
Data set [3] deals with wild-type human cardiac sodium channel, hNav1.5 (late INa) (Homo sapiens, UniProt Q14524). Nature of the data set: Late INa screening assay (QPatch whole cell patch clamp). Format: cell-based. Particulars: percent block of late INa, compound at 1 μM, 10 μM Tefluthrin, HEK293 hNav1.5; read-out: Late INa 1 μM. A digest of the protocol: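 Compounds tested at 1 μM final in extracellular solution against tefluthrin (10 μM)-enhanced late current. Automated patch clamp (23-25° C) on HEK293 expressing alpha subunit alone: −120 mV holding, 250 ms depolarization to −20 mV every 10 s. Read-out is percent inhibition of mean current over 225–250 ms.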
Sequence of wild-type human cardiac sodium channel, hNav1.5 (late INa) (Q14524 whole entry): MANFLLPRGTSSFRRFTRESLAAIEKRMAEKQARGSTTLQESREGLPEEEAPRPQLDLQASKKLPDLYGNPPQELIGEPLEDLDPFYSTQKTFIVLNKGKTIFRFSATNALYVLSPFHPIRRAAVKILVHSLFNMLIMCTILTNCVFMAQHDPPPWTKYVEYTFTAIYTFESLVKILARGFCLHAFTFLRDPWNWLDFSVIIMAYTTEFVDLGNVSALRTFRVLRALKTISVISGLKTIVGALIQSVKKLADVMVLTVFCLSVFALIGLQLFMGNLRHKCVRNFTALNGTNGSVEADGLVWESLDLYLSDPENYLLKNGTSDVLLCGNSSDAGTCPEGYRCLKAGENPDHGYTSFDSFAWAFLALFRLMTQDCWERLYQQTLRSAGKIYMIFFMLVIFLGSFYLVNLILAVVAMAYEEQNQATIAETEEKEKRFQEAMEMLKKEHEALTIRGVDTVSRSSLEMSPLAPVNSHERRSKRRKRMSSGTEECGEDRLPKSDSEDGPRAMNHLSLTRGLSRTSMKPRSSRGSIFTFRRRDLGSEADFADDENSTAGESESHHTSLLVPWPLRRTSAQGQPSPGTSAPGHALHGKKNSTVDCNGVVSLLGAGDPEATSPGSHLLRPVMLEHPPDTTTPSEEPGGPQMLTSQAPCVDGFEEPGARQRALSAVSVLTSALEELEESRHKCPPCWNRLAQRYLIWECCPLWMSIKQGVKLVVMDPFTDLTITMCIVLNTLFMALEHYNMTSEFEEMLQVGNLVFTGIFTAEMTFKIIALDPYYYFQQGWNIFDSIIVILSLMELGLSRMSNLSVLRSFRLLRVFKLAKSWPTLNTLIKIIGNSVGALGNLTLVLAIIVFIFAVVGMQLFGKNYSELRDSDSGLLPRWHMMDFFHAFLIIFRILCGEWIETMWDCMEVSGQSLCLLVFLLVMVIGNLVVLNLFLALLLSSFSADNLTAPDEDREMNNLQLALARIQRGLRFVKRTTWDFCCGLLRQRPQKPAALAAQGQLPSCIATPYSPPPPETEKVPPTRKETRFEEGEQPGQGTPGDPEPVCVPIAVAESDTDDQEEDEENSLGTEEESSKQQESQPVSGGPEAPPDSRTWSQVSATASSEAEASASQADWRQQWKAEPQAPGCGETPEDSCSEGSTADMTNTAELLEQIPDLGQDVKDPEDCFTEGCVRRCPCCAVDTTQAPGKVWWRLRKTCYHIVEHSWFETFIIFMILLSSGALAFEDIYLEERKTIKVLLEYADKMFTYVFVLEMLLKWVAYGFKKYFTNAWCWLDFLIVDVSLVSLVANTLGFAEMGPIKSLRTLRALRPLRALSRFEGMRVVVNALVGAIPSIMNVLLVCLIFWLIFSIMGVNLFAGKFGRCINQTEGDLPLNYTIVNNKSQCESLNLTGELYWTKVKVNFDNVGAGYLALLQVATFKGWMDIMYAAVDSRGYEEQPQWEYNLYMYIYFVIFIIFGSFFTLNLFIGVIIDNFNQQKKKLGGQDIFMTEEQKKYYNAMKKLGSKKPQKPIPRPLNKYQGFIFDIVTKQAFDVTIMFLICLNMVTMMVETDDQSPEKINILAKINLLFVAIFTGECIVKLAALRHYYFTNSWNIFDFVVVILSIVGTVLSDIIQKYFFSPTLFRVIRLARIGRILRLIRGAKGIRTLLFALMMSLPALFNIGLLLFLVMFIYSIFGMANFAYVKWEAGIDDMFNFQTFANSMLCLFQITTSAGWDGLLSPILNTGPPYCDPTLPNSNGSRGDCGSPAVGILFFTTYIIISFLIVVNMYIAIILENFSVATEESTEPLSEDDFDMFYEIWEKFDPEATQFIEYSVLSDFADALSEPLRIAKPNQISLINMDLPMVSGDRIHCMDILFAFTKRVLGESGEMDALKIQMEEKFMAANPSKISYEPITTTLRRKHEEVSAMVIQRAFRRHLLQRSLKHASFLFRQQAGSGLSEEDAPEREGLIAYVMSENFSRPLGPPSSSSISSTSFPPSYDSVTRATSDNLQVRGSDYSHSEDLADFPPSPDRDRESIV

The nature of data set [4]: Microsomal stability assay, dog. Format: in vitro ADME. Particulars: metabolic stability, dog liver microsomes 0.5 mg/mL, substrate 3 uM. On the procedure:
as §1

Turning to `O=C(Cn1nnc2ccc(-c3ccc(OC(F)(F)F)cc3)cc2c1=O)N1CCN(c2ncccn2)CC1` [II-41, 3-(2-oxo-2-(4-(pyrimidin-2-yl)piperazin-1-yl)ethyl)-6-(4-(trifluoromethoxy)phenyl)benzo[d][1,2,3]triazin-4(3H)-one], the MS Rat THalf in data set [1] was determined as 16 min. This compound also returned an MS Human THalf in data set [2] of 28 min. Further, the inhibition at 1 µM in data set [3] is 25%. In data set [4], this compound came in with an MS Dog THalf of 80 min.
As to `N#CC1(c2ccc(-c3ccc4nnn(CCOc5ncccn5)c(=O)c4c3)cc2)CC1` [II-50, 1-(4-(4-oxo-3-(2-(pyrimidin-2-yloxy)ethyl)-3,4-dihydrobenzo[d][1,2,3]triazin-6-yl)phenyl)cyclopropanecarbonitrile], the MS Rat THalf in data set [1] was 49 min. The same compound yielded an MS Human THalf in data set [2] of 165 min. The inhibition at 1 µM in data set [3] worked out at 30%. Moreover, in data set [4], the MS Dog THalf was found to be 159 min.
The matching figures for `N#Cc1cnc(OCCn2nnc3ccc(-c4ccc(OC(F)(F)F)cc4)cc3c2=O)nc1` [II-51, 2-(2-(4-oxo-6-(4-(trifluoromethoxy)phenyl)benzo[d][1,2,3]triazin-3(4H)-yl)ethoxy)pyrimidine-5-carbonitrile]: 197 min, above 395 min, 35% and 93 min.
As for `O=c1c2cc(-c3ccc(OC(F)(F)F)cc3)ccc2nnn1CCn1ccc(C(F)(F)F)n1` [II-52, 6-(4-(trifluoromethoxy)phenyl)-3-(2-(3-(trifluoromethyl)-1H-pyrazol-1-yl)ethyl)benzo[d][1,2,3]triazin-4(3H)-one], in data set [1], the MS Rat THalf stood at 118 min. This compound also returned an MS Human THalf in data set [2] of 319 min. Besides, in data set [3], the inhibition at 1 µM worked out at 32%. Besides, in data set [4], the MS Dog THalf was 76 min.
`CC(c1nc(-c2ncccn2)no1)n1nnc2ccc(-c3ccc(OC(F)(F)F)cc3)cc2c1=O` (stereo not shown) [II-53, 3-(1-(3-(pyrimidin-2-yl)-1,2,4-oxadiazol-5-yl)ethyl)-6-(4-(trifluoromethoxy)phenyl)benzo[d][1,2,3]triazin-4(3H)-one] registered an MS Rat THalf in data set [1] above 395 min. For the same compound, the MS Human THalf in data set [2] is above 395 min. In addition, the inhibition at 1 µM in data set [3] amounted to 29%. Also, the MS Dog THalf in data set [4] came to 646 min.
With `CCc1nccn1CC1(Cn2nnc3ccc(-c4ccc(OC(F)(F)F)cc4)cc3c2=O)CC1` [II-57, 3-((1-((2-ethyl-1H-imidazol-1-yl)methyl)cyclopropyl)methyl)-6-(4-(trifluoromethoxy)phenyl)benzo[d][1,2,3]triazin-4(3H)-one], in data set [1], the MS Rat THalf worked out at 2 min. The compound also came in with an MS Human THalf in data set [2] of 2 min. The inhibition at 1 µM in data set [3] is 38%. This compound also gave an MS Dog THalf in data set [4] of 4 min.
For the compound `O=c1c2cc(-c3ccc(OC(F)(F)F)cc3)ccc2nnn1C1CCN(CC(F)(F)F)CC1` [II-71, 3-(1-(2,2,2-trifluoroethyl)piperidin-4-yl)-6-(4-(trifluoromethoxy)phenyl)benzo[d][1,2,3]triazin-4(3H)-one], the MS Rat THalf in data set [1] was 94 min. In addition, the MS Human THalf in data set [2] is 75 min. In data set [3], the inhibition at 1 µM turned out to be 25%. For the same compound, the MS Dog THalf in data set [4] turned out to be 78 min.
`CCOC(=O)N1CCC(=O)C(n2nnc3ccc(-c4ccc(OC(F)(F)F)cc4)cc3c2=O)C1` (stereo not shown) [II-72, ethyl 4-oxo-3-(4-oxo-6-(4-(trifluoromethoxy)phenyl)benzo[d][1,2,3]triazin-3(4H)-yl)piperidine-1-carboxylate] registered an MS Rat THalf in data set [1] of 8 min. Also, in data set [2], the MS Human THalf amounted to 11 min. Moreover, the inhibition at 1 µM in data set [3] stood at 31%. This compound showed an MS Dog THalf in data set [4] of 6 min.
Take `CC(C)(COc1ncccn1)Cn1nnc2ccc(-c3ccc(OC(F)(F)F)cc3)cc2c1=O` [II-84, 3-(2,2-dimethyl-3-(pyrimidin-2-yloxy)propyl)-6-(4-(trifluoromethoxy)phenyl)benzo[d][1,2,3]triazin-4(3H)-one]: the MS Rat THalf in data set [1] is 51 min. The same compound yielded an MS Human THalf in data set [2] of 107 min. Also, the inhibition at 1 µM in data set [3] was 34%. In addition, in data set [4], the MS Dog THalf was determined as 98 min.
Regarding `O=c1c2cc(-c3ccc(OC(F)(F)F)cc3)ccc2nnn1Cc1coc(C2CCC2)n1` [II-98, 3((2-cyclobutyloxazol-4-yl)methyl)-6-(4-(trifluoromethoxy)phenyl)benzo[d][1,2,3]triazin-4(3H)-one], in data set [1], the MS Rat THalf worked out at 16 min. This compound also returned an MS Human THalf in data set [2] of 31 min. Besides, in data set [3], the inhibition at 1 µM amounted to 41%. Besides, the MS Dog THalf in data set [4] was 34 min.
For the compound `Cc1nc(Cn2ncc3ccc(-c4ccc(OC(F)(F)F)cc4)cc3c2=O)no1` [III-3, 2-((5-methyl-1,2,4-oxadiazol-3-yl)methyl)-7-(4-(trifluoromethoxy)phenyl)phthalazin-1(2H)-one], in data set [1], the MS Rat THalf was determined as 104 min. The MS Human THalf in data set [2] was above 395 min. Also, in data set [3], the inhibition at 1 µM was found to be 42%. For the same compound, the MS Dog THalf in data set [4] came out at 122 min.
In turn, `O=c1c2cc(-c3ccc(OC(F)(F)F)cc3)ccc2cnn1CCn1cccc1` [III-10, 2-(2-(1H-pyrrol-1-yl)ethyl)-7-(4-(trifluoromethoxy)phenyl)phthalazin-1(2H)-one] showed an MS Rat THalf in data set [1] of 18 min. Moreover, the MS Human THalf in data set [2] worked out at 41 min. Also, the inhibition at 1 µM in data set [3] is 33%. The same compound displayed an MS Dog THalf in data set [4] of 18 min.
Regarding `O=c1c2cc(-c3ccc(OC(F)(F)F)cc3)ccc2cnn1Cc1cccnc1Br` [III-14, 2-((2-bromopyridin-3-yl)methyl)-7-(4-(trifluoromethoxy)phenyl)phthalazin-1 (2H)-one], in data set [1], the MS Rat THalf came out at 55 min. The MS Human THalf in data set [2] amounted to 251 min. Besides, the inhibition at 1 µM in data set [3] turned out to be 39%. This compound also displayed an MS Dog THalf in data set [4] of 77 min.
The matching figures for `Cc1ccn(CCn2ncc3ccc(-c4ccc(OC(F)(F)F)cc4)cc3c2=O)n1` [III-17, 2-(2-(3-methyl-1H-pyrazol-1-yl)ethyl)-7-(4-(trifluoromethoxy)phenyl)phthalazin-1 (2H)-one]: 22 min, 34 min, 49% and 28 min.
The matching figures for `Cc1cccc(CCn2ncc3ccc(-c4ccc(OC(F)(F)F)cc4)cc3c2=O)n1` [III-18, 2-(2-(6-methylpyridin-2-yl)ethyl)-7-(4-(trifluoromethoxy)phenyl)phthalazin-1 (2H)-one]: 20 min, 25 min, 37% and 23 min.
For `O=c1c2cc(-c3ccc(OC(F)(F)F)cc3)ccc2cnn1Cc1cccnc1C1CC1` [III-20], the MS Rat THalf in data set [1] worked out at 54 min. This compound returned an MS Human THalf in data set [2] of 41 min. Besides, the inhibition at 1 µM in data set [3] amounted to 28%. Further, the MS Dog THalf in data set [4] was determined as 61 min.
On to `Cc1cc(C)nc(Cn2ncc3ccc(-c4ccc(OC(F)(F)F)cc4)cc3c2=O)n1` [III-22], for which the MS Rat THalf in data set [1] stood at 86 min. Besides, in data set [2], the MS Human THalf was determined as 252 min. In data set [3], the inhibition at 1 µM came out at 35%. The compound further displayed an MS Dog THalf in data set [4] of 191 min.
The matching figures for `Cc1cc(C)n(CCn2ncc3ccc(-c4ccc(OC(F)(F)F)cc4)cc3c2=O)n1` [III-24, 2-(2-(3,5-dimethyl-1H-pyrazol-1-yl)ethyl)-7-(4-(trifluoromethoxy)phenyl)phthalazin-1 (2H)-one]: 9 min, 13 min, 28% and 18 min.
Regarding `O=c1c2cc(-c3ccc(OC(F)(F)F)cc3)ccc2cnn1CCc1ccncn1` [III-36, 2-(2-(pyrimidin-4-yl)ethyl)-7-(4-(trifluoromethoxy)phenyl)phthalazin-1 (2H)-one], the MS Rat THalf in data set [1] came to 32 min. Also, the MS Human THalf in data set [2] was 46 min. Further, in data set [3], the inhibition at 1 µM stood at 39%. This compound yielded an MS Dog THalf in data set [4] of 31 min.
On to `Cc1nonc1Cn1cnc2ccc(-c3ccc(OC(F)(F)F)cc3)cc2c1=O` [IV-3, 3-((4-methyl-1,2,5-oxadiazol-3-yl)methyl)-6-(4-(trifluoromethoxy)phenyl)quinazolin-4(3H)-one], for which, in data set [1], the MS Rat THalf came out at 219 min. The MS Human THalf in data set [2] was found to be 366 min. Further, the inhibition at 1 µM in data set [3] came out at 37%. The compound further came in with an MS Dog THalf in data set [4] of 54 min.
Consider `O=C1c2cc(-c3ccc(OC(F)(F)F)cc3)ccc2CCN1Cc1ccccn1` [IX-2, 2-(pyridin-2-ylmethyl)-7-(4-(trifluoromethoxy)phenyl)-3,4-dihydroisoquinolin-1(2H)-one], for which the MS Rat THalf in data set [1] stood at 106 min. In data set [2], this compound returned an MS Human THalf of 65 min. For the same compound, in data set [3], the inhibition at 1 µM amounted to 40%. For the same compound, the MS Dog THalf in data set [4] turned out to be 88 min.
The matching figures for `O=C(NCc1ccco1)N1CCc2ccc(-c3ccc(C(F)(F)F)cc3)cc2C1` [IX-48, N-(furan-2-ylmethyl)-7-(4-(trifluoromethyl)phenyl)-3,4-dihydroisoquinoline-2(1H)-carboxamide]: 37 min, 80 min, 31% and 149 min.
